{"source": "patent US20080241274A1", "about": "(ZIOPHARM Oncology, Inc., priority 2006, published 2008)", "key": {"[1]": {"system": "U87 glioblastoma xenografts", "experiment": "U87 glioblastoma xenograft in nu/nu mice", "assay_type": "in vivo, Human", "from_the_text": "5×10^6 U87 glioblastoma cells were implanted subcutaneously in immunodeficient nu/nu mice. Treatment started when tumor weight was about 0.15 g (Day 0).\nThe significant differences in pharmacodynamics and safety profile of indibulin make it a strong candidate for development as an anti-cancer drug."}, "papillary thyroid cancer": {"system": "papillary thyroid cancer", "experiment": "Phase I study, patient with papillary thyroid cancer", "assay_type": "in vivo, human", "conditions": "400 mg BID continuous treatment", "from_the_text": "(§1) Treatment is ongoing. […] Treatment is ongoing."}, "[2]": {"system": "ovarian cancer with brain metastases", "experiment": "Phase I study, patient with ovarian cancer with brain metastases", "assay_type": "in vivo, human", "conditions": "400 mg BID continuous treatment; after 22 days of treatment; person", "from_the_text": "as §1"}}, "data": [{"compound": "O=C(Nc1ccncc1)C(=O)c1cn(Cc2ccc(Cl)cc2)c2ccccc12", "note": "[Indibulin, N-(pyridin-4-yl)-[1-(4-chlorobenzyl)-indol-3-yl]-glyoxylic acid amide]", "values": [{"measurement": "Growth Inhibition (%)", "setting": "[1]; U87, 27.5 mg/kg/d, 3×(3× week), at sacrifice of control group animals", "result": 88.8, "unit": "%"}, {"measurement": "Growth of U87 glioblastoma xenografts (in words)", "setting": "[1]; orally administered, s.c. tumors in nu/nu mice, FIG. 11", "result": "inhibits growth"}, {"measurement": "Decrease of thyroglobulin level from baseline", "setting": "papillary thyroid cancer; after 15th day of dosing", "result": 34, "unit": "%"}, {"measurement": "Decrease of tumor measurements", "setting": "papillary thyroid cancer; at first assessment", "result": 11, "unit": "%"}, {"measurement": "Disease status after treatment", "setting": "papillary thyroid cancer; person", "result": "stable disease"}, {"measurement": "Reduction of CA125 level from baseline", "setting": "[2]", "result": 11, "unit": "%"}]}]}
